In PMC4443670, “The C-terminal region of the motor protein MCAK controls its structure and activity through a conformational switch” (eLife, 2015):
“Also recorded” adds a separate entry of the source. Ends that are not written are not given here.

Assays:
GST-CT domain = assay: Resin-based binding assay, CT domain self-interaction (CT domain to GST-CT); parameters: species or system human; details: GST-CT on glutathione agarose; GST-cleaved CT domain
Description: Kinesin-1 is regulated through an auto-inhibitory mechanism whereby one C-terminal tail binds at the interface of the two motors, such that it creates a second point of attachment in addition to the coiled coil region. This limits the head movement of one kinesin with respect to the other ([Stock et al., 1999]; [Hackney and Stock, 2000]; [Kaan et al., 2011]). We sought to test whether the C-terminal tail domain of MCAK, which has been proposed to regulate MCAK activity ([Moore and Wordeman, 2004]), was sufficient to interact with the motor domain. To do this, we expressed the N-terminal and motor region (residues 1–583, termed NM) or the motor region of MCAK along with the neck linker region (residues 181–583, termed M) as His-tagged proteins, and the C-terminal MCAK tail (residues 700–725, termed CT domain) as a GST fusion protein ([Moore and Wordeman, 2004]; [Hertzer et al., 2006]) (Figure 1A). […] We cannot however exclude a very tight interaction between two CT domains. […]
Protein expression was induced by addition of 0.5 mM IPTG to BL21(DE3) Codon plus cells transformed with respective constructs at OD600 of 0.7–0.8 for 16 hr at 18°C. […] Protein concentrations were determined with a combination of Bradford protein assays and densitometry of Coomassie-stained gels relative to a BSA standard. […]

MCAK motor domain [1] = target: T1, MCAK motor domain (Homo sapiens, UniProt Q99661); assay: Analytical size-exclusion chromatography (motor-CT complex formation); format: binding; details: Superdex 75 or Superose 6 10/300 GL; Coomassie-stained gel of fractions
T1 construct: His-MCAK (183–583, M) and His-MCAK (1–583, NM) were subcloned in pET3aTr vector; made in house; host or cells: E. coli BL21(DE3) Codon plus
Description: Full-length MCAK is a dimer in solution ([Maney et al., 2001]). Therefore, we sought to test whether the CT domain interacts with one or two motor domains. To define the stoichiometry of this interaction, we subjected the complex to analytical size-exclusion chromatography. The motor domain alone behaves as a monomer and eluted with an apparent size of ∼45 kDa. […] Using SDS-PAGE analysis, we confirmed that the shift to a larger complex was due to the interaction of the motor domain with the CT domain (Figure 1C, bottom). […] The predicted masses for complexes of one and two CT domains bound to two motor domains are ∼94.2 and 97.7 kDa, respectively. […] Since the CT domain is unlikely to dimerize alone (Figure 1B), we conclude that the MCAK CT domain induces the dimerization of the motor domains cooperatively.
Protein expression was induced by addition of 0.5 mM IPTG to BL21(DE3) Codon plus cells transformed with respective constructs at OD600 of 0.7–0.8 for 16 hr at 18°C. Cells were lysed by sonication in lysis buffer (50 mM Hepes, pH 7.4, 200 mM NaCl, 1 mM MgCl2, 1 mM PMSF, 1 mg/ml DNaseI, 2 mg/ml lysozyme, 10 mM Imidazole) and clarified at 20,000 rpm for 1 hr at 4°C. His-tagged and GST-tagged proteins were subsequently purified using Ni-NTA–agarose beads and glutathione-sepharose beads, respectively (GE Healthcare Life Sciences, UK)) according to the manufacturer's guidelines. MCAK constructs containing the motor domain were eluted with elution buffer (50 mM Hepes, pH 7.4, 200 mM NaCl, 1 mM MgCl2, 1 mM ATP, and 300 mM imidazole). Cleavage of the GST tag was performed using the GST-3C protease overnight at 4°C. […] Protein concentrations were determined with a combination of Bradford protein assays and densitometry of Coomassie-stained gels relative to a BSA standard. […]

MCAK motor domain [2] = target: T1, MCAK motor domain; assay: X-ray crystal structure of motor domain with CT peptide (PDB 4UBF)
Experimental: 1 mM MCAK motor domain (PDB:2HEH, Addgene, Cambridge MA, USA) was incubated with the CT peptide 709[…]720 (China peptides Co, Ltd, China) in a ratio of 1:2 for 1 hr at 4°C before setting up crystallization trials. Elongated rectangular crystals appeared by vapor diffusion after two days in sitting drops using 24% wt/vol PEG 1500 and 20% vol/vol Glycerol as a precipitant. Crystals were grown in MRC 2 Well Crystallization Plate (Hampton Research, Aliso Viejo, CA, USA) at 19°C. Crystals were cryoprotected in a solution containing 28% wt/vol PEG 1500 and 30% vol/vol Glycerol and flash-frozen in dry liquid nitrogen.
Diffraction data were recorded at Diamond Light Source on beamline ID24 at 100 K. Data were processed using XDS package ([Kabsch, 2010]) and SCALA operated through the CCP4 suite GUI ([Collaborative Computational Project, Number 4, 1994]). The structure of the MCAK motor-tail complex was solved by molecular replacement using the program MOLREP. The MCAK motor domain structure (PDB code: 2HEH) was used as a search model. Structure refinement was performed using Refmac5 and Phenix ([Adams et al., 2010]). Figures were prepared using PyMOL ([Delano, 2002]).

[3] = tested on: taxol-stabilized microtubules; assay: Microtubule cosedimentation assay, untreated microtubules; format: binding; details: for detection of CT domain in microtubule-bound pellet / supernatant: western blot, 50 nM motor domain, with and without DTT
Experimental: Full-length MCAK complex was diluted in S buffer (50 mM NaCl, 20 mM Hepes pH 7.0) to 50 nM, in absence of nucleotide to prevent MCAK-dependent microtubule depolymerisation. To assemble an MCAK motor-CT domain complex, 50 nM of the motor domain and 100 nM of the CT domain were used. Microtubule binding assays were performed as described ([Cheeseman et al., 2006]) using equal volumes of taxol-stabilized microtubules in BRB80 and MCAK in S buffer. MCAK was quantified using anti-MCAK antibody against the C terminus of MCAK (709[…]720), generated by GL Biochem (Shangai) Ltd (China) or anti-His antibody to probe for the motor domain alone (GE Healthcare Lifesciences, UK). The data from at least three independent experiments were fitted to a modified Hill equation to determine the apparent Kd.

[4] = tested on: MCAK motor domain (Cys287); assay: Covalent (disulphide) attachment of the CT domain to the motor domain; format: binding, human
Experimental: The GST-CTE712C and CTE712C domains were cross-linked to the motor domain by incubating them with the motor domain in a buffer containing 100 mM HEPES, pH 7.4, 150 mM NaCl but lacking DTT for 1 hr at 4°C. As a negative control the motor domain and the CTE712C domain were incubated in the identical buffer, supplemented with 5 mM DTT.

[5] = tested on: taxol-stabilized microtubules; assay: Microtubule depolymerisation assay; format: biochemical
Experimental: Microtubule depolymerization assays were performed essentially as described previously ([Hertzer et al., 2006]). MCAK was diluted to 100 nM in S-buffer containing 1 mM DTT and 2 mM Mg-ATP. For depolymerization assays of the motor domain in presence of the CT domain after GST cleavage and removal, 50 nM of motor domain and 100 nM of the CT domain were used. The microtubule depolymerization assay was initiated by the addition of 2 μM taxol-stabilized microtubules to a reaction buffer containing MCAK. Reactions were incubated at room temperature with increasing times and followed by centrifugation to separate microtubules from free tubulin. The data are represented as mean ± SD from three independent experiments.

T1 sequence (Q99661 183-583): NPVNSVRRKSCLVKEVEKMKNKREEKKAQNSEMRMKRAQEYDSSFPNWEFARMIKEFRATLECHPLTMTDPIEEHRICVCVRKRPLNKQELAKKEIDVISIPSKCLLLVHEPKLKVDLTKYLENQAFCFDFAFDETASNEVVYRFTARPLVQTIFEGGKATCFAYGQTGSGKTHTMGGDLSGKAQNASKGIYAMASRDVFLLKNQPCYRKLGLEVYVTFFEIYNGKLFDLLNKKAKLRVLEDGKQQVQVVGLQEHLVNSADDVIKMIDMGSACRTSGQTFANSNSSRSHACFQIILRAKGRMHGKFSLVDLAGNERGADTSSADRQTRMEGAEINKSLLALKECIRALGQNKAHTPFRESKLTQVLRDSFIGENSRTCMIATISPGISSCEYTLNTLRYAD

| RMSD of overall structure of MCAK on CT domain binding (MCAK motor domain [2]; 3 Å crystal structure) [Å] | binding to MCAK motor, presence of DTT ([4]; 5 mM DTT) | microtubule depolymerase activity of motor with CTE712C domain, absence of DTT ([5]; 50 nM motor domain, 100 nM CTE712C domain, 2 μM taxol-stabilized microtubules, no DTT, apparent activity) | Substance | interaction of CT domain with itself (GST-CT domain) | binding to / co-migration with motor domain by gel filtration (MCAK motor domain [1]) | effect of free CT domain on MCAKS715E binding to microtubules ([3]; 100 nM full-length MCAKS715E, 2 μM taxol-stabilized microtubules, increasing free CT or CTS715E, repeated three times) | detection of CT domain in microtubule-bound pellet / supernatant [3] | binding mode in crystal structure (MCAK motor domain [2]; 3 Å, peptide 709QLEEQASRQISS720) | non-covalently bound MCAK fraction ([4]; motor-CTE712C domain complex, absence of DTT, Figure 6—figure supplement 1F) | formation of covalent complex with motor ([4]; oxidizing conditions (without DTT), 100 mM HEPES pH 7.4, 150 mM NaCl, 1 hr at 4°C) | reduction of fraction of MCAK motor bound to microtubules ([3]; 50 nM motor domain + CTE712C domain, oxidizing conditions (no DTT), absence of nucleotide) [%] | microtubule depolymerase activity of motor with CTE712C domain, presence of DTT ([5]; 50 nM motor domain, 100 nM CTE712C domain, 2 μM taxol-stabilized microtubules, with DTT) | specific depolymerase activity of covalent MCAK motor-CTE712C complex ([5]; calculated by subtracting activity of motor alone (~50% of population)) |
| --- | --- | --- | --- | --- | --- | --- | --- | --- | --- | --- | --- | --- | --- |
| 0.863 |  |  | GPLGSIKALRLAMQLEEQASRQISSKKRPQ-OH [CT domain] | unable to interact with itself through dimerization | bound the motor domain independently of the GST; also recorded: the elution peak shifted to an earlier fraction, suggesting dimerization of the MCAK motor | decreased the affinity of MCAKS715E for microtubules | did not detect |  |  |  |  |  |  |
|  |  |  | 709QLEEQASRQISS720 [chemically synthesized peptide corresponding to the CT domain] |  |  |  |  | a single CT domain binds to both motor domains, close to their neck linker regions |  |  |  |  |  |
|  | did not bind the MCAK motor | displayed reduced depolymerase activity | CTE712C: CT domain with Glu712 mutated to cysteine, forms disulphide bridge with motor Cys287 (VIKALRLAMQLECQASRQISSKKRPQ; also: Cys712 forms disulfide with motor Cys287; UniProt Q99661 700-725, looked up, fragment E712C) |  |  |  | did not detect |  | 45–50% | formed a covalent complex | ~50 | the depolymerase activity was similar to that of the wild type MCAK motor alone | strongly inhibits the depolymerase activity of MCAK |
